Reference: patent publication US9403801B2 (Calitor Sciences, LLC, priority 2014, dated 2016)
pIC50: −log10 of the molar value.

What was measured:
[1] = Compound stability in rat liver microsomes; format: in vitro ADME; settings: for half-life at 5 μM: compound 5 μM, NADPH 1.0 mM, 37° C.; for CLint scaled at 5 μM: in vivo CLint extrapolated
Protocol: (§1) Human or rat liver microsomes incubations were conducted in duplicate in polypropylene tubes. The typical incubation mixtures consisted of human or rat liver microsomes (0.5 mg protein/mL), compounds of interest (5 μM) and NADPH (1.0 mM) in a total volume of 200 μL potassium phosphate buffer (PBS, 100 mM, pH 7.4). Compounds were dissolved in DMSO and diluted with PBS such that the final concentration of DMSO was 0.05%. The enzymatic reactions were commenced with the addition of protein after a 3-min preincubation and incubated in a water bath open to the air at 37° C. Reactions were terminated at various time points (0, 5, 10, 15, 30, 60 min) by adding equal volume of ice-cold acetonitrile. The samples were stored at −80° C. until LC/MS/MS assays.
(§2) The concentrations of compounds in the incubation mixtures of human or rat liver microsomes were determined by a LC/MS/MS method. The ranges of the linearity in the concentration range were determined for each tested compounds.
(§3) A parallel incubation was performed using denatured microsomes as the negative control, and reactions were terminated at various time points (0, 15, 60 min) after incubation at 37° C.
(§4) Dextromethorphan (70 μM) was selected as the positive control, and reactions were terminated at various time points (0, 5, 10, 15, 30, 60 min) after incubation at 37° C. Both positive and negative control samples were included in each assay to ensure the integrity of the microsomal incubation system.
(§5) The concentrations of compounds in human or rat liver microsome incubations were plotted as a percentage of the relevant zero time point control for each reaction. The in vivo CLint were extrapolated (ref.: Naritomi, Y.; Terashita, S.; Kimura, S.; Suzuki, A.; Kagayama, A.; and Sugiyama, Y.; Prediction of human hepatic clearance from in vivo animal experiments and in vitro metabolic studies with liver microsomes from animals and humans. Drug Metab. Dispos., 2001, 29: 1316-1324).

[2] = Pharmacokinetics after intravenous and oral administration in rats; format: in vivo; settings: for Clearance (CL) after iv dosing / AUC(0-t) / half-life / Vd: dose 1 mg/kg (Ex. 27: 0.72 mg/kg), iv dosing; for F: oral bioavailability; for AUC(0-t) / half-life / Vd: rat, plasma; for Vd: read-out: Vss
Protocol: The LC/MS/MS system used in the analysis consists of an Agilent 1200 Series vacuum degasser, binary pump, well-plate autosampler, thermostatted column compartment, the Agilent G6430 Triple Quadrupole Mass Spectrometer with an electrosprayionization (ESI) source. Quantitative analysis was carried out using MRM mode. The parameters for MRM transitions are in the Table A.
An Agilent XDB-C18, 2.1×30 mm, 3.5 μM column was used for the analysis. 5 μL of the samples were injected. Analysis condition: The mobile phase was 0.1% formic acid in water (A) and 0.1% formic acid in methanol (B). The flow rate was 0.4 mL/min. And the gradient of Mobile phase was in the Table B.
Alternatively, an Agilent 6330 series LC/MS/MS spectrometer equipped with G1312A binary pumps, a G1367A autosampler and a G1314C UV detector were used in the analysis. An ESI source was used on the LC/MS/MS spectrometer. The analysis was done in positive ion mode as appropriate and the MRM transition for each analyte was optimized using standard solution. A Capcell MP-C18 100×4.6 mm I.D., […] column (Phenomenex, Torrance, Calif., USA) was used during the analysis. The mobile phase was 5 mM ammonia acetate, 0.1% MeOH in water (A): 5 mM ammonia acetate, 0.1% MeOH in acetonitrile (B) (70:30, v/v). The flow rate was 0.6 mL/min. Column was maintained at ambient temperature. 20 μL of the samples were injected.
The compounds disclosed herein are assessed in pharmacokinetic studies in mice, rats, dogs or monkeys. The compounds are administered as a water solution, 2% HPMC+1% TWEEN®80 in water solution, 5% DMSO+5% solution in saline, 4% MC suspension or capsule. For the intravenous administration, the animals are generally given at 1 or 2 mg/kg dose. For the oral (p.o.) dosing, mice and rats are generally given 5 or 10 mg/kg dose, and dogs and monkeys are generally given 10 mg/kg dose. The blood samples (0.3 mL) are drawn at 0.25, 0.5, 1.0, 2.0, 3.0, 4.0, 6.0, 8.0, 12 and 24 h time points or 0.083, 0.25, 0.5, 1.0, 2.0, 4.0, 6.0, 8.0 and 24 h time points and centrifuged at 3,000 or 4000 rpm for 2 to 10 min. The plasma solutions are collected, and stored at −20° C. or −70° C. until analyzed by LC/MS/MS as described above.

[3] = Compound stability in human liver microsomes; format: in vitro ADME; settings: for half-life at 5 μM: compound 5 μM, NADPH 1.0 mM, 37° C.; for CLint scaled at 5 μM: in vivo CLint extrapolated
Protocol: as §1, §2, §3, §4, §5

JAK1 (h) = JAK1 (h) (Homo sapiens (Human), UniProt P23458); assay: JAK1 kinase assay (33P-ATP filter binding, Millipore); format: biochemical
Chain of JAK1 (h) (P23458 whole entry): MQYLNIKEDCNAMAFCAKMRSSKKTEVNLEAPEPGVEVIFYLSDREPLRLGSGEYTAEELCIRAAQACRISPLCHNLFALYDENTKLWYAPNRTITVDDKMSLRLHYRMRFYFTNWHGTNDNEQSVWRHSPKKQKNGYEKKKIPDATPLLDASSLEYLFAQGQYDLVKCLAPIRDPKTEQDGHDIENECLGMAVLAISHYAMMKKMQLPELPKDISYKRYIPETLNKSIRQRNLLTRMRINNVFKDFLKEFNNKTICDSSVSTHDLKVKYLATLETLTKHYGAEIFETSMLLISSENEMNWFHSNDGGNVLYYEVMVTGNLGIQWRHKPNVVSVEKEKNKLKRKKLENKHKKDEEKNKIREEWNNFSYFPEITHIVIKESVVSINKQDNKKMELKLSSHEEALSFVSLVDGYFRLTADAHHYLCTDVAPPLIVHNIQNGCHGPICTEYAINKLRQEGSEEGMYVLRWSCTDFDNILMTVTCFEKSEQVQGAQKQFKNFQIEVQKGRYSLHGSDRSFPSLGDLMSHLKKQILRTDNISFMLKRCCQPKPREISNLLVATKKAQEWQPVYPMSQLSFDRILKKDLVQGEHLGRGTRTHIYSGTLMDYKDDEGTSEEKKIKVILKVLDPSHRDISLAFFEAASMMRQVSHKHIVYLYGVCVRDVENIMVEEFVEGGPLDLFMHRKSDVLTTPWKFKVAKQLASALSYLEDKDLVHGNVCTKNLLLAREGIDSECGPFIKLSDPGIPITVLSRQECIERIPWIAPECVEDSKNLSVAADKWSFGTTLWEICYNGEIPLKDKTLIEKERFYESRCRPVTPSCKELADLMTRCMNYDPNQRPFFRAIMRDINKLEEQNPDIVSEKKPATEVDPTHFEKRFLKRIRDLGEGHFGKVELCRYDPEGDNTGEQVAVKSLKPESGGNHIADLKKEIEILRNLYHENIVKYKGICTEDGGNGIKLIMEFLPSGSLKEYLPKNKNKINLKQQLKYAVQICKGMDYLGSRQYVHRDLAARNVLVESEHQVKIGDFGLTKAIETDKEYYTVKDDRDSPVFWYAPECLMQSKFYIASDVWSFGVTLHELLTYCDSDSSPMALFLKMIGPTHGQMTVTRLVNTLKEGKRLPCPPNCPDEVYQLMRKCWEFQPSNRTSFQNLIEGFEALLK
Protocol: Kinase assays can be performed by measurement of incorporation of γ-^33P ATP into immobilized myelin basic protein (MBP). High binding white 384 well plates (Greiner) are coated with MBP (Sigma #M−1891) by incubation of 60 μL/well of 20 μg/mL MBP in Tris-buffered saline (TBS; 50 mM Tris pH 8.0, 138 mM NaCl, 2.7 mM KCl) for 24 h at 4° C. Plates are washed 3× with 100 μL TBS. Kinase reactions are carried out in a total volume of 34 μL in kinase buffer (5 mM Hepes pH 7.6, 15 mM NaCl, 0.01% bovine gamma globulin (Sigma #I-5506), 10 mM MgCl2, 1 mM DTT, 0.02% TritonX-100). Compound dilutions are performed in DMSO and added to assay wells to a final DMSO concentration of 1%. Each data point is measured in duplicate, and at least two duplicate assays are performed for each individual compound determination. Enzyme is added to final concentrations of 10 nM or 20 nM, for example. A mixture of unlabeled ATP and γ-^33P ATP is added to start the reaction (2×10^6 cpm of γ-^33P ATP per well (3000 Ci/mmole) and 10 μM unlabeled ATP, typically. The reactions are carried out for 1 h at room temperature with shaking. Plates are washed 7× with TBS, followed by the addition of 50 μL/well scintillation fluid (Wallac). Plates are read using a Wallac Trilux counter. This is only one format of such assays; various other formats are possible, as known to one skilled in the art.
The above assay procedure can be used to determine the IC50 for inhibition and/or the inhibition constant, Ki. The IC50 is defined as the concentration of compound required to reduce the enzyme activity by 50% under the condition of the assay. The IC50 value is estimated by preparing a 10 point curve using a 1/2 log dilution series (for example, a typical curve may be prepared using the following compound concentrations: 3 μM, 1 μM, 0.3 μM, 0.1 μM, 0.03 μM, 0.01 μM, 0.003 μM, 0.001 μM, 0.0003 μM and 0 μM).
The kinase assays described herein were performed at Millipore UK Ltd, Dundee Technology Park, Dundee DD2 1SW, UK.

[4] = rat, liver microsomes, pH 7.4, Rat liver microsomes 0.5 mg protein/mL
[5] = rat, liver microsomes, pH 7.4, Rat liver microsomes
[6] = human, liver microsomes, pH 7.4, Human liver microsomes 0.5 mg protein/mL
[7] = human, liver microsomes, pH 7.4, Human liver microsomes
[8] = pH 7.4, Rat liver microsomes 0.5 mg protein/mL
[9] = pH 7.4, Human liver microsomes 0.5 mg protein/mL

SMILES: CN(c1nc(Nc2cnn(C)c2)ncc1Cl)C1CCC2(CCNC2)CC1 (single isomer, unassigned) [Ex. 3.10A, 5-chloro-N^4-methyl-N^2-(1-methyl-1H-pyrazol-4-yl)-N^4-(2-azaspiro[4.5]decan-8-yl)pyrimidine-2,4-diamine]
- half-life at 5 μM [1, 4]: 12.8 min
- CLint scaled at 5 μM [1, 5]: 194 mL/min/kg
- Clearance (CL) after iv dosing [2]: 4.21 L/h/kg
- F [2]: 19.06%
- AUC(0-t) [2]: 216 ng·h/mL
- half-life [2]: 163 min
- Vd [2]: 13.5 L/kg
- half-life at 5 μM [3, 6]: 315 min
- CLint scaled at 5 μM [3, 7]: 5.53 mL/min/kg

SMILES: CN(c1ccnc(Nc2cnn(C)c2)n1)C1CNCC12CCCC2 (stereo not drawn) [Ex. 1, N^4-methyl-N^2-(1-methyl-1H-pyrazol-4-yl)-N^4-(2-azaspiro[4.4]nonan-4-yl) pyrimidine-2,4-diamine]
- half-life at 5 μM [1, 8]: 269 min
- CLint scaled at 5 μM ([1]; pH 7.4, Rat liver microsomes): 9.23 mL/min/kg
- Clearance (CL) after iv dosing [2]: 9.42 L/h/kg
- F [2]: 44.39%
- AUC(0-t) [2]: 103 ng·h/mL
- half-life [2]: 226 min
- Vd [2]: 40.3 L/kg
- half-life at 5 μM [3, 9]: 183 min
- CLint scaled at 5 μM ([3]; pH 7.4, Human liver microsomes): 9.49 mL/min/kg

SMILES: Cn1cc(Nc2nccc(NC3CCC4(CC3)CCN(C(=O)CC#N)C4)n2)cn1 (stereo not drawn) [Ex. 6, 3-(8-((2-((1-methyl-1H-pyrazol-4-yl)amino)pyrimidin-4-yl)amino)-2-azaspiro[4.5]decan-2-yl)-3-oxopropanenitrile]
- pIC50 (JAK1 (h)): 7.26

SMILES: Cc1cnc(Nc2cnn(C)c2)nc1NC1CN(C(=O)CC#N)CC12CCCC2 (stereo not drawn) [Ex. 8, 3-(4-((5-methyl-2-((1-methyl-1H-pyrazol-4-yl)amino)pyrimidin-4-yl)amino)-2-azaspiro[4.4]nonan-2-yl)-3-oxopropanenitrile]
- Clearance (CL) after iv dosing [2]: 3.70 L/h/kg
- F [2]: 17.5%
- AUC(0-t) [2]: 272 ng·h/mL
- half-life [2]: 52.8 min
- Vd [2]: 2.85 L/kg
- pIC50 (JAK1 (h)): 7.96

SMILES: Cc1cnc(Nc2cnn(C)c2)nc1N(C)C1CCC2(CC1)CCN(C(=O)CC#N)CC2 [Ex. 23, 3-(9-(methyl(5-methyl-2-((1-methyl-1H-pyrazol-4-yl)amino)pyrimidin-4-yl)amino)-3-azaspiro[5.5]undecan-3-yl)-3-oxopropanenitrile]
- half-life at 5 μM [1, 4]: 4.5 min
- CLint scaled at 5 μM [1, 5]: 552 mL/min/kg
- half-life at 5 μM [3, 6]: 125 min
- CLint scaled at 5 μM [3, 7]: 13.9 mL/min/kg

SMILES: COc1cnc(Nc2cc(C3CC3)[nH]n2)nc1NC1CC2CN(C(=O)CC#N)CC2C1 (stereo not drawn) [Ex. 52, 3-(5-((2-((5-cyclopropyl-1H-pyrazol-3-yl)amino)-5-methoxypyrimidin-4-yl)amino)hexahydrocyclopenta[c]pyrrol-2(1H)-yl)-3-oxopropanenitrile]
- half-life at 5 μM [1, 8]: 16 min
- CLint scaled at 5 μM ([1]; pH 7.4, Rat liver microsomes): 155 mL/min/kg
- Clearance (CL) after iv dosing [2]: 5.05 L/h/kg
- F [2]: 16.5%
- AUC(0-t) [2]: 197 ng·h/mL
- half-life [2]: 19.2 min
- Vd [2]: 1.6 L/kg
- half-life at 5 μM [3, 9]: 68.3 min
- CLint scaled at 5 μM ([3]; pH 7.4, Human liver microsomes): 25.4 mL/min/kg

SMILES: CC(=O)N1CC2CC(Nc3nc(Nc4cc(C5CC5)[nH]n4)ncc3Cl)CC2C1 (stereo not drawn) [Ex. 53, 1-(5-((5-chloro-2-((5-cyclopropyl-1H-pyrazol-3-yl)amino)pyrimidin-4-yl)amino)hexahydrocyclopenta[c]pyrrol-2(1H)-yl)ethanone]
- half-life at 5 μM [1, 8]: 23.1 min
- CLint scaled at 5 μM ([1]; pH 7.4, Rat liver microsomes): 108 mL/min/kg
- Clearance (CL) after iv dosing [2]: 3.31 L/h/kg
- F [2]: 33.0%
- AUC(0-t) [2]: 296 ng·h/mL
- half-life [2]: 61.2 min
- Vd [2]: 2.46 L/kg
- half-life at 5 μM [3, 9]: 266 min
- CLint scaled at 5 μM ([3]; pH 7.4, Human liver microsomes): 6.53 mL/min/kg

SMILES: N#CCC(=O)N1CCC2(CCC(Nc3nc(Nc4cc(C5CC5)[nH]n4)ncc3Cl)CC2)CC1 [Ex. 54, 3-(9-((5-chloro-2-((5-cyclopropyl-1H-pyrazol-3-yl)amino)pyrimidin-4-yl)amino)-3-azaspiro[5.5]undecan-3-yl)-3-oxopropanenitrile]
- half-life at 5 μM [1, 4]: 31.6 min
- CLint scaled at 5 μM [1, 5]: 78.6 mL/min/kg
- half-life at 5 μM [3, 6]: 38.8 min
- CLint scaled at 5 μM [3, 7]: 44.8 mL/min/kg

SMILES: Cc1nn(C)cc1Nc1ncc(Cl)c(NC2CCC3(CC2)CCN(C(=O)CC#N)CC3)n1 [Ex. 57, 3-(9-((5-chloro-2-((1,3-dimethyl-1H-pyrazol-4-yl)amino)pyrimidin-4-yl)amino)-3-azaspiro[5.5]undecan-3-yl)-3-oxopropanenitrile]
- pIC50 (JAK1 (h)): 7.80

SMILES: CC(=O)N1CC2CC(Nc3nc(Nc4cnn(C)c4)ncc3C)CC2C1 (stereo not drawn) [Ex. 61, 1-(5-((5-methyl-2-((1-methyl-1H-pyrazol-4-yl)amino)pyrimidin-4-yl)amino)hexahydrocyclopenta[c]pyrrol-2(1H)-yl)ethanone]
- pIC50 (JAK1 (h)): 7.38

SMILES: Cn1cc(Nc2ncc(C#N)c(NC3CC4CN(C(=O)CC#N)CC4C3)n2)cn1 (stereo not drawn) [Ex. 67, 4-((2-(2-cyanoacetyl)octahydrocyclopenta[c]pyrrol-5-yl)amino)-2-((1-methyl-1H-pyrazol-4-yl)amino)pyrimidine-5-carbonitrile]
- half-life at 5 μM [1, 8]: 26.4 min
- CLint scaled at 5 μM ([1]; pH 7.4, Rat liver microsomes): 94.1 mL/min/kg
- half-life at 5 μM [3, 9]: 296 min
- CLint scaled at 5 μM ([3]; pH 7.4, Human liver microsomes): 5.87 mL/min/kg
